Earlier results on one compound are cited in patent publication US12582603B2 (NTC S.r.l., priority 2017, dated 2026).

Each structure is given as a SMILES string.

The conditions of this data set: at a pH of 6.4.

As to `Brc1c(N=C2NCCN2)ccc2nccnc12.O=C(O)C(O)C(O)C(=O)O` [Brimonidine, 5-Bromo-6-(2-imidazolidinylideneamino)quinoxaline L-tartrate], the Fraction ionized result is listed as “about 90%”.
